Assays:
[1] = test system: adult female Tetranychus kanzawai from Okayama Prefecture; experiment: Efficacy test against Tetranychus kanzawai (spray on kidney bean plant); type: in vivo; conditions: 500 ppm emulsion sprayed
Experimental: Ten adult female Tetranychus kanzawai acarus from Okayama Prefecture were inoculated onto the first leaves of a kidney bean plant planted in a No. 3 pot 7 to 10 days after germination. Next, an emulsion was prepared having the formula indicated in the aforementioned Preparation example 2. This emulsion was diluted with water to a compound concentration of 500 ppm or 125 ppm after which the diluted liquids were sprayed onto the kidney bean plant. The kidney bean plant was then placed in a temperature-controlled room at a temperature of 25° C. and humidity of 65%. The life and death of the adult insects were investigated 3 days after the spraying. In addition, the development from eggs laid to adult was investigated 14 days after the spraying.
The aforementioned test was carried out on the emulsion containing the Compound No. 2-1 at 500 ppm. As a result, the insect mortality rates after 3 days and 14 days for the compound were 90% or higher.

| SMILES | melting point | insect mortality rate after 3 days ([1]; 3 days after spraying) | insect mortality rate after 14 days ([1]; 14 days after spraying) |
| --- | --- | --- | --- |
| CC(C)(NC(=O)NOc1ccc2ncsc2c1)c1ccccn1 | 164 to 166 °C |  |  |
| CCN(Oc1ccc2ncsc2c1)C(=O)N=S(C)(=O)c1ccccc1 (stereo not drawn) [Compound No. 2-1] |  | ≥ 90% | ≥ 90% |
